{
  "source": "paper PMC7794472",
  "about": "“Direct entry of cell-penetrating peptide can be controlled by maneuvering the membrane curvature” (Scientific Reports, 2021)",
  "key": {"[1]": {"conditions": "0 °C (SOPC Tc 6 °C, gel state), CLSM observation; cited from earlier work"}, "dermal fibroblasts": {"tested_on": "dermal fibroblasts", "conditions": "cited from earlier work", "source_text": "Hoffmeister Effect of solute[12] is one of the known phenomena to control the hydration level of self-assembled amphiphiles. Chaotropic solutes (water structure breakers) such as sodium thiocyanate (NaSCN) and 1,3-butanediol (1,3-BG) make the membrane curvature positive. On the other hand, kosmotropic solutes (water structure maker ..."}, "[2]": {"parameters": "method as in doi:10.1246/cl.2012.1078", "conditions": "under the tested conditions, regardless of osmotic pressure change; cited from earlier work"}, "[3]": {"assay": "Leakage of internalized FITC-R8 and rhodamine from GUV", "conditions": "EPC GUV, L/P = 1000, 10 min, 37 °C, different osmotic pressures, with or without FITC-R8 in outer medium, fluorescence Ex 555/Em 575 nm, n = 5", "experimental": "GUVs were prepared by the freeze-melting and natural swelling method[23]. Lipids dissolved in chloroform were placed into the vials, and then the solvent was evaporated. After being dried in vacuo for 16 h in the dark, lipid films were hydrated with 0.01 mg/mL of Rho/3 M KCl solution to give 20 mM lipid concentration. […] The suspension was vortexed for 1 min. This step (from freezing to vortexing) was repeated six times. It was transferred to a dialysis membrane (UC-8-32-25; Viskase Co. Ltd., Chicago, USA) and dialyzed against 20% PBS for at least two days at room temperature and, the dialysis solution was daily replaced by a new one. In this study, 20% PBS is defined as ‘isotonic solution’ and PBS solution at concentrations less than 20% as ‘hypotonic solution’ and at higher than 20% as ‘hypertonic solution’.\nPenetration assay of CPP into GUV was conducted in the same manner previously reported[23]. […] The ratio of penetrated FITC-R8 and Rho leakage ratio was calculated using the following equations:1 P=A/U×100 2 L=IL-Rho/IL-Rho+INL-Rho×100\nIn Eq. (1), P is the penetrated ratio of FITC-R8 ratio, A is the amount of penetrated FITC-R8 into GUV calculated using the standard curve, and U is the amount of FITC-R8 used in this experiment. In Eq. (2), L is the leaked Rho ratio, and IL-Rho and INL-Rho are the fluorescence intensities of leaked and non-leaked Rho."}},
  "data": [
    {"compound": "N=C(N)NCCC[C@H](NC(=O)[C@H](CCCNC(=N)N)NC(=O)[C@H](CCCNC(=N)N)NC(=O)[C@H](CCCNC(=N)N)NC(=O)[C@H](CCCNC(=N)N)NC(=O)[C@H](CCCNC(=N)N)NC(=O)[C@H](CCCNC(=N)N)NC(=O)[C@H](CCCNC(=N)N)NC(=O)CCCNC(=S)Nc1ccc2c(c1)C(=O)OC21c2ccc(O)cc2Oc2cc(O)ccc21)C(=O)O", "note": "[FITC-R8]", "values": [
      {"measurement": "cytolysis to SOPC GUV", "setting": "[1]", "result": "no cytolysis"},
      {"measurement": "cell viability with chaotropic solutes (NaSCN, 1,3-BG)", "setting": "dermal fibroblasts", "result": "without interfering with cell viability"}
    ]},
    {"compound": "fluorescein isothiocyanate [FITC]", "values": [
      {"measurement": "permeation through the membrane into the cytosol", "setting": "[2]", "result": "could not permeate through the membrane"}
    ]},
    {"compound": "CCN(CC)c1ccc2c(-c3ccccc3C(=O)O)c3ccc(=[N+](CC)CC)cc-3oc2c1", "note": "[rhodamine, Rhodamine B]", "values": [
      {"measurement": "leakage of rhodamine pre-encapsulated in the GUV", "setting": "[3]", "result": "very low and consistent"}
    ]}
  ]
}
